Where two headings read alike, the source gives them in different places. Each block holds one molecule with its values, some of them ahead of it.
Key:
[1] = format: in vivo, mice (BALB/c, CB17 SCID, tumor-bearing CB17 SCID); conditions: for Tmax: BALB/c, mouse, po; for Dose proportionality of Cmax in plasma and tissues: across mouse strains, sorafenib: all tissues except the tumor; for ka, absorption rate constant: fitted to Study#1 data, then fixed
[2] = cited from earlier work; for Fa, fraction absorbed / Bioavailability / Fraction of dose absorbed: mice; for Fa, fraction absorbed: fixed in the PBPK model; for Bioavailability: oral
[3] = ref Pubchem Compound; cited from earlier work
[4] = cited from earlier work
[5] = iv dosing; cited from earlier work
[6] = concomitant CYP3A4 inhibitor ketoconazole; cited from earlier work
CYP3A4 = conditions: human liver microsomes; cited from earlier work
CYP2C19 = conditions: human liver microsomes; cited from earlier work
CYP2D6 = conditions: human liver microsomes; cited from earlier work
P-glycoprotein (P-gp) = conditions: in vitro; cited from earlier work
[7] = CB17-SCID, plasma and most tissues

Tmax [1, 7]: 1 h | Tmax ([1]; adipose and skin, 5 mg/kg): ≤ 6 h | Kbr, partition coefficient brain ([1]; PBPK population mean, mice): 0.018 | Kmu, partition coefficient muscle ([1]; PBPK population mean, mice): 0.105 | Ksp, partition coefficient spleen ([1]; PBPK population mean, mice): 0.361 | Dose proportionality of Cmax in plasma and tissues [1]: dose-proportional | ka, absorption rate constant [1]: 9.45 h⁻¹ | Time detected in plasma and all tissues after the last dose ([1]; oral dosing): up to 24 h | Ktu, partition coefficient tumor ([1]; patient-derived primary pancreatic adenocarcinoma explants in SCID mice): 0.480 | PK (AUC) given alone versus in combination ([1]; student's t test of AUCs from each study, mice): no statistically significant difference
Compound: CO[C@H]1C[C@@H]2CC[C@@H](C)[C@@](O)(O2)C(=O)C(=O)N2CCCC[C@H]2C(=O)O[C@H]([C@H](C)C[C@@H]2CC[C@@H](OCCO)[C@H](OC)C2)CC(=O)[C@H](C)/C=C(\C)[C@@H](O)[C@@H](OC)C(=O)[C@H](C)C[C@H](C)/C=C/C=C/C=C/1C [everolimus, Everolimus]
Fa, fraction absorbed [2]: 0.12 | Bioavailability [2]: 5% | Fraction of dose absorbed [2]: 12% | log P [3]: 5.9 | Increase of everolimus AUC ([4]; concomitant strong CYP inhibitor ketoconazole, humans): 15 fold | Increase of everolimus AUC ([4]; moderate CYP inhibitors erythromycin, verapamil, cyclosporine): 2.7–4.5 fold | Change in everolimus AUC ([4]; weak inhibitor atorvastatin): no change

Tmax ([1]; CB17-SCID, GI tract): 1 h | Tmax [1, 7]: 6 h | Kf, partition coefficient adipose ([1]; PBPK population mean, mice): 0.624 | Kmu, partition coefficient muscle ([1]; PBPK population mean, mice): 0.356 | Ksk, partition coefficient skin ([1]; PBPK population mean, mice): 0.361 | Clint, hepatic clearance ([1]; PBPK population mean, oral dosing, mice): 6.64 mL/h | Dose proportionality of Cmax in plasma and tissues [1]: dose-proportional | ka, absorption rate constant [1]: 3.83 h⁻¹ | Time detected in plasma and all tissues after the last dose ([1]; oral dosing): up to 24 h | Increase in tumor exposure ([1]; twofold increase in sorafenib dose): tenfold
Compound: CNC(=O)c1cc(Oc2ccc(NC(=O)Nc3ccc(Cl)c(C(F)(F)F)c3)cc2)ccn1 [sorafenib, Sorafenib]
Dose proportionality in Cmax and AUC ([2]; CD-1 mice, at the doses tested): dose proportionality | Terminal half-life ([2]; CD-1 mice): 3.2 to 4.2 h | Tmax ([2]; CD-1 mice): 1 to 1.6 h | Fa, fraction absorbed [2]: 0.920 | Bioavailability [2]: 80% | Fraction of dose absorbed [2]: 92% | Partition coefficient K for brain, calculated [5]: 0.02 | Change in Cmax and exposure, adverse events [6]: lack of clinically relevant adverse events or change in Cmax and exposure | CYP3A4 inhibition (CYP3A4): moderate inhibitor | CYP2C19 inhibition (CYP2C19): moderate inhibitor | CYP2D6 inhibition (CYP2D6): moderate inhibitor | P-gp substrate character (P-glycoprotein (P-gp)): weak P-glycoprotein (P-gp) substrate

Source: article PMC3755750 (Cancer chemotherapy and pharmacology, 2013)
